Measurements from patent US20240374558A1, “PREPARATION OF PHENE[…] […] STEREOISOMERS THEREOF AND PRECURSORS THEREOF” (priority 2022, published 2024).
Where a name gives a salt, the structure may show the parent alone.

Assays:
Assay type in all cases: cell-based
[1] = molecular target: T1, Cav1.2 (Homo sapiens, UniProt Q13936); assay: hCav1.2 (L-type) Calcium Channel Assay, Qube APC; settings: Antagonist mode; HEK-Cav1.2; test compound
T1 construct: host or cells: HEK293
Procedure: Where presented, IC50 values were determined by a non-linear, least squares regression analysis.
Recombinant HEK-293 cells stably transfected with human NavL.5 cDNA, recombinant HEK293 cell line expressing the human Cavl.2 (L-type voltage gated calcium channel, hCavl.2 alC/02a/a281, and recombinant CHO-K1 cells stably transfected with human hERG cDNA were used separately in each of these assays.
(§1) Ion Channels tested were Eurofins Panel Part Number: CPROFullQB2DR Voltage-Gated Sodium: HEK-Nav1.5 (Peak), HEK-Nav1.5 (Late, Antagonist) Voltage-Gated Potassium: HEK-Kv4.3/KChIP2, CHO-hERG, CHO-KCNQ1/minK Voltage-Gated Calcium: HEK-Cav1.2 Inward-Rectifying Voltage-Gated Potassium: HEK-Kir2.1.
Methods employed in this study have been developed and validated with reliability and reproducibility by Eurofins. Assays were performed under conditions below. […] Peak current is measured during the step to −15 mV. […] Onset and steady state block of hKv4.3 current is measured using a pulse pattern from −80 mV to 40 mV amplitude for a 110 ms duration, and finally a 100 ms ramp (1.2 V/s) to −80 mV. This paradigm is delivered once every 5s to monitor the current amplitude. […] Cavl.2 currents are evoked by a 50 ms pulse to −100 mV followed by a 200 ms pulse to +20 mV before returning to the holding potential of −90 mV. This paradigm is delivered three times every 60s to monitor the current amplitude. [0220] hNav1.5 Late Current Sodium Channel Assay—Qube APC Onset and steady state block of Late Nay1.5 current is measured using a pulse pattern, repeated every 5 sec, consisting of a hyperpolarizing pulse to −120 mV for a 200 ms duration, depolarization to −15 mV amplitude for a 40 ms duration, followed by step to 40 mV for 200 ms and finally a 100 ms ramp (1.2 V/s) to a holding potential of −80 mV. Late current is measured as charge current elicited during the ramp with 50 nM ATXII.

[2] = molecular target: T2, Nav1.5 Late Current (Homo sapiens, UniProt Q14524); assay: hNav1.5 Late Current Sodium Channel Assay, Qube APC; settings: Antagonist mode; HEK-Nav1.5 (Late), 50 nM ATXII; test compound
T2 construct: host or cells: HEK-293
T2 sequence (Q14524 whole entry): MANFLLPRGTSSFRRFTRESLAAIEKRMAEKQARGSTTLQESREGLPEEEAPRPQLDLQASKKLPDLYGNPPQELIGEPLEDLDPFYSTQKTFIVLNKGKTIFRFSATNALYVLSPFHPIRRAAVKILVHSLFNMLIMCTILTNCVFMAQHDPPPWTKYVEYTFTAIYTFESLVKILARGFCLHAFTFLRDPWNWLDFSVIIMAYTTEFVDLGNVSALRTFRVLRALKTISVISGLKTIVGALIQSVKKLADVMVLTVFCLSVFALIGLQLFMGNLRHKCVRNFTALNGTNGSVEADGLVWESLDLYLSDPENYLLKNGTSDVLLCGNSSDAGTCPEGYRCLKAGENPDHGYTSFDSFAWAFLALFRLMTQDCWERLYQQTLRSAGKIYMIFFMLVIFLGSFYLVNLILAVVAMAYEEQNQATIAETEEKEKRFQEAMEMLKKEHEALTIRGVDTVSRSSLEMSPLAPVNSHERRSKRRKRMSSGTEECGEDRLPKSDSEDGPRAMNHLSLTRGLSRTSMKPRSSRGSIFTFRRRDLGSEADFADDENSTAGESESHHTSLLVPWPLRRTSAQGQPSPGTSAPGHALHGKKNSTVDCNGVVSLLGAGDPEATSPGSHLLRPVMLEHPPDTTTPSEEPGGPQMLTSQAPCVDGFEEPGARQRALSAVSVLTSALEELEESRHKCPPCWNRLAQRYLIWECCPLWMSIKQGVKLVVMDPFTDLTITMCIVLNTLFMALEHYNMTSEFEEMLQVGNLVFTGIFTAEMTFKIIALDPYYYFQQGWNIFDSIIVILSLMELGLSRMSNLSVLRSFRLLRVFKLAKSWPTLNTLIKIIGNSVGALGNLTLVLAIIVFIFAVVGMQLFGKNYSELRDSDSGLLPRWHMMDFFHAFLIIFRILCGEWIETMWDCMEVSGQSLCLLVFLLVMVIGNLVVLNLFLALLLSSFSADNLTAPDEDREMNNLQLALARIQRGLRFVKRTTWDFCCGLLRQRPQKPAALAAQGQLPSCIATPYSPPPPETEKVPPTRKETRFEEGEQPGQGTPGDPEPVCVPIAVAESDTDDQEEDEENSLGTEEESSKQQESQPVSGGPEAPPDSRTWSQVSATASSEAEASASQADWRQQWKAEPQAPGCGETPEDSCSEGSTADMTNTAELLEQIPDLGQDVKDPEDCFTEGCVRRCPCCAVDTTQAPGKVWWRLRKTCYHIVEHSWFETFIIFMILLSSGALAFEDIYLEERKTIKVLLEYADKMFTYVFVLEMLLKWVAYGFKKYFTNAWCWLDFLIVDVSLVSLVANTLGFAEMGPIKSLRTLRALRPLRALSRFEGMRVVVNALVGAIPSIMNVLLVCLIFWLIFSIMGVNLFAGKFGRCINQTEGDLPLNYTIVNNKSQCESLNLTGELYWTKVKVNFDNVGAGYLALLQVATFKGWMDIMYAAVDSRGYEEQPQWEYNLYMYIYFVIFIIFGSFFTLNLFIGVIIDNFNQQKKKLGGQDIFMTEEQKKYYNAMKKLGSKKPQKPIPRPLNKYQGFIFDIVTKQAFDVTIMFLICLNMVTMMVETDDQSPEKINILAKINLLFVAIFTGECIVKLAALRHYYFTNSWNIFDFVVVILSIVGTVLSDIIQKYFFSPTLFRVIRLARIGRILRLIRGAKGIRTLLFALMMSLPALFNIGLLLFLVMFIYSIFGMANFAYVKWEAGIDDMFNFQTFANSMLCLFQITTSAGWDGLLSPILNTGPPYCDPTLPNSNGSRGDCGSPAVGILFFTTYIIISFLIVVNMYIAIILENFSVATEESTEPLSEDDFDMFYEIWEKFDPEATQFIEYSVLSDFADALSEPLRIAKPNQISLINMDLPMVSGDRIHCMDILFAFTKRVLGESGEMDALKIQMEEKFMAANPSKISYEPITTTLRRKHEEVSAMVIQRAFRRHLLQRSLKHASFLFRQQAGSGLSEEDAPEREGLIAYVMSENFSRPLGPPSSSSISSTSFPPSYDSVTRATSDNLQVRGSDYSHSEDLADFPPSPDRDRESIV
Procedure: (§2) Electrophysiological assays were conducted to profile three compounds ((R)-methylone, (S)-methylone, or racemic methylone) for activities on the ion channel targets specified below using the Qube electrophysiological platform. Where presented, IC50 values were determined by a non-linear, least squares regression analysis. Reference standards were run as an integral part of each assay to ensure the validity of the results obtained.
as §1
Methods employed in this study have been developed and validated with reliability and reproducibility by Eurofins. Assays were performed under conditions below. [0217] hNavL.5 Sodium Channel Assay—Qube APC Onset and steady state block of peak Nay1.5 current is measured using a pulse pattern, repeated every 5 sec, consisting of a hyperpolarizing pulse to −120 mV for a 200 ms duration, depolarization to −15 mV amplitude for a 40 ms duration, followed by step to 40 mV for 200 ms and finally a 100 ms ramp (1.2 V/s) to a holding potential of −80 mV. Peak current is measured during the step to −15 mV. […] Onset and steady state block of hKv4.3 current is measured using a pulse pattern from −80 mV to 40 mV amplitude for a 110 ms duration, and finally a 100 ms ramp (1.2 V/s) to −80 mV. […] [0220] hNav1.5 Late Current Sodium Channel Assay—Qube APC Onset and steady state block of Late Nay1.5 current is measured using a pulse pattern, repeated every 5 sec, consisting of a hyperpolarizing pulse to −120 mV for a 200 ms duration, depolarization to −15 mV amplitude for a 40 ms duration, followed by step to 40 mV for 200 ms and finally a 100 ms ramp (1.2 V/s) to a holding potential of −80 mV. Late current is measured as charge current elicited during the ramp with 50 nM ATXII.

[3] = molecular target: T3, KCNQ1/mink (Homo sapiens, UniProt P51787); assay: hKCNQ1/hminK Potassium Channel Assay, Qube APC; settings: Antagonist mode; CHO-KCNQ1/minK; test compound
T3 construct: host or cells: CHO
T3 sequence (P51787 whole entry): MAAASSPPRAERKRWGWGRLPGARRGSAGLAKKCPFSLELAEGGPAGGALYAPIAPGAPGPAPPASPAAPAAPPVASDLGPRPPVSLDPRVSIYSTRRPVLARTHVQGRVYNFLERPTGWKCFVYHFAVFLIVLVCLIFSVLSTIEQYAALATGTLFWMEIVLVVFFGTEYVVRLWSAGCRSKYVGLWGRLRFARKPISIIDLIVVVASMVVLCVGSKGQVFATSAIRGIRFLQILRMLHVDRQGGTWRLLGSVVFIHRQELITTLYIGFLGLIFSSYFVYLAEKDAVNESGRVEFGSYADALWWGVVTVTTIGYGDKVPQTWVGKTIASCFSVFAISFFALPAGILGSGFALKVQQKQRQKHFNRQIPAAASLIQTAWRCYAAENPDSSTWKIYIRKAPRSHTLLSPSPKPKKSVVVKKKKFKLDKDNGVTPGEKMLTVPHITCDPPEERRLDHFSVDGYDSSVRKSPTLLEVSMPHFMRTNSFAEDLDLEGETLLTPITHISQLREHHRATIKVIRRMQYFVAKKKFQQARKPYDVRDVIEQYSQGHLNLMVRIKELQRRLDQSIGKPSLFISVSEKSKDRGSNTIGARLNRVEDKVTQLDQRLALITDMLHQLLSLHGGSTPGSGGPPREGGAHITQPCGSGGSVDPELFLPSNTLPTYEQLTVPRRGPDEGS
Procedure: as §2, §1
hKCNQ1/hminK Potassium Channel Assay—Qube APC After whole cell configuration is achieved, the cells are held at −80 mV. KCNQ1/minK currents are evoked by a 1000 ms pulse from −80 mV to 60 mV followed by a ramp from 60 mV to −80 mV over 115 ms with the outward peak currents measured upon depolarization of the cell membrane. This paradigm is delivered once every 15s to monitor the current amplitude. [0223] hKir2.1 Potassium Channel Assay—Qube APC After whole cell configuration is achieved, the cells are held at −30 mV. Kir2.1 currents are evoked by a single 500 ms pulse to -120 mV before returning to the holding potential of −30 mV. This paradigm is delivered once every 20s to monitor the current amplitude.

CN[C@H](C)C(=O)c1ccc2c(c1)OCO2 [(R)-methylone]
Estimated IC50 [1]: N/C (N/C indicates observed mean inhibition was <25%)
Estimated IC50 [2]: N/C (N/C indicates observed mean inhibition was <25%)
Estimated IC50 [3]: N/C (N/C indicates observed mean inhibition was <25%)

CN[C@@H](C)C(=O)c1ccc2c(c1)OCO2 [(S)-methylone]
Estimated IC50 [1]: N/C (N/C indicates observed mean inhibition was <25%)
Estimated IC50 [2]: N/C (N/C indicates observed mean inhibition was <25%)
Estimated IC50 [3]: N/C (N/C indicates observed mean inhibition was <25%)

CNC(C)C(=O)c1ccc2c(c1)OCO2 (stereo not drawn) [Methylone HCl, methylone HCl]
Estimated IC50 [1]: N/C (N/C indicates observed mean inhibition was <25%)
Estimated IC50 [2]: N/C (N/C indicates observed mean inhibition was <25%)
Estimated IC50 [3]: N/C (N/C indicates observed mean inhibition was <25%)
